Data as given in paper PMC5955599, “The HTLV-1 gp21 fusion peptide inhibits antigen specific T-cell activation in-vitro and in mice” (PLoS Pathogens, 2018).

Columns and labels:
[1] = tested on: MOG35-55–antigen specific T-cells; assay: mRNA expression in activated T-cells (qRT-PCR); format: cell-based, mouse (C57Bl/6J); conditions: 10μM; APC activation; RNA 24 hours following activation; normalized to Rpl13a; n≥3
Procedure: Fig 2 Modulation of Th1/Th2 gene expression and cytokine secretion from activated T-cells by the HTLV FP. MOG35-55–antigen specific T-cells were activated by irradiated MOG35-55 presenting APCs, in the presence of the HTLV FP at 10μM. (A) Total RNA was isolated 24 hours following activation and mRNA expression levels were determined by qRT-PCR. The values of each gene were normalized to Rpl13a as a housekeeping control. The HTLV FP reduces mRNA expression of Th1 specific genes (IFNG, LTA, and STAT4) and elevates mRNA expression of Th2 specific genes (IL4 and IL10). The data is presented as arbitrary units. n≥3. (B) Media was collected 24 hours following activation and secretion of cytokines was measured by ELISA assay. IFN-γ secretion is inhibited, IL4 secretion is elevated and TNFα is not affected by the HTLV FP. n = 12. One-way ANOVA was used for statistical analysis. *P<0.05; **P<0.01;***P<0.001.
(A-B) MOG35-55–antigen specific T-cells were activated by irradiated MOG35-55 presenting APCs, in the presence of the HTLV FP at 10μM. Total RNA was isolated 24 hours following activation and mRNA expression levels were determined by qRT-PCR. The values of each gene were normalized to Rpl13a as a housekeeping control. The HTLV FP reduces TBX21 (T-bet) mRNA expression and elevates GATA3 mRNA expression. The data is presented as arbitrary units. n≥3. (C-H) MOG35-55–antigen specific T-cells were activated by irradiated MOG35-55 presenting APCs, in the presence of either HTLV or HIV FP at 10μM. Samples were fixed in 4% PFA and stained with anti T-bet-APC and anti Gata3-FITC antibodies (C-D) 24, (E-F) 48 and (G-H) 72 hours following activation. Each time point is represented as cell count vs. APC or FITC fluorescence histogram. Analysis was performed using LSR-II flow cytometer (BD) and FlowJo cell analysis software (FlowJo, LLC). The HTLV FP reduces T-bet expression and elevates Gata3 expression. n = 3. One-way ANOVA was used for statistical analysis. ns, not significant; *P<0.05;** P<0.01.
Antigen-specific T-cells were plated onto round 12-well plates (10^6 cells/ well) and activated with 5x10^5 irradiated (25 gray) APC and 5μg/ml of MOG p35-55 in the presence or absence of relevant peptides. Total RNA from cells was isolated 24 hours following activation using the NucleoSpin RNA II kit (Macherey-Nagel, Duren, Germany). 2μg aliquot of the total RNA was reverse transcribed into cDNA using Bio-RT (Bio-Lab, Jerusalem, Israel), dNTPs and random hexamer primers. qRT-PCR was performed on Step One Plus, ABI instrument (Applied Biosystems, Grand Island, NY, USA) using SYBR Green PCR Master Mix (Quanta BioSciences, Gaithersburg, MD, USA). The values for the specific genes were normalized to Rpl13a (mouse) as housekeeping controls and the data are described in arbitrary units. PCR reactions were performed in duplicate. The specific primers used for qRT-PCR are available on request.

[2] = tested on: MOG35-55-reactive T-cells (spleenocytes harvested at 26 DPI); assay: Ex-vivo MOG35-55 re-stimulation of spleenocytes from EAE mice; format: in vivo, mouse; conditions: mice treated with single dose 1mg/kg
Procedure: Fig 3 Administration of HTLV FP alleviates MOG35-55-induced EAE. (A-B) MOG35-55–antigen specific T-cells were activated by irradiated MOG35-55 presenting APCs, in the presence of HTLV FP or HTLV Scr at 10μM. (A) The proliferative responses were assessed by H^3-thymidine incorporation assay, and normalized to the proliferation of non-activated T-cells. The data is presented as mean inhibition of proliferation. n = 12. (B) IFN-γ was measured by ELISA assay. n = 12. (C-D) EAE was induced in C57BL/6 female mice that were treated with a single dose of HTLV FP, HTLV Scr or vehicle. […] (C) Direct clinical measurement of EAE phenotype in a 5-point scale with increased disease symptoms correlating with higher score value. The data is presented as mean EAE clinical score. (D) Mice were weighed the day before EAE induction, and the change (as a percentage) in weight was recorded. The data is presented as mean change from the initial weight. One-way ANOVA was used for statistical analysis. ^a HTLV FP ≠ Vehicle; ^b HTLV FP ≠ Vehicle & HTLV Scr; ^c HTLV FP ≠ HTLV Scr. ^a,b,cP<0.05. (E) Spleenocytes were harvested at 26 DPI and stimulated using MOG35-55. The proliferative responses were assessed by H^3-thymidine incorporation assay and normalized to the proliferation of non-activated T-cells. The data is presented as counts per minute (CPM). n = 7. (F-G) Spleenocytes were harvested at 26 DPI and stimulated using MOG35-55. Media was collected 48 hours following activation and secretion of IFN-γ and IL4 was measured by ELISA assay. […] One-way ANOVA was used for statistical analysis. *P<0.05;**P<0.01;***P<0.001; ns, not significant.
We then performed an additional EAE experiment in which mice were treated with a single dose of HTLV FP (1mg/kg), HTLV Scr (1mg/kg) or vehicle. […] As disease manifestation was milder compared to the previous experiment, we were able to monitor animals for a longer period of time. […]

[3] = harvested at 26 DPI, media 48 hours following activation, ELISA, n>8, compared to vehicle and HTLV Scr groups

Sequence: AVPVAVWLVSALAMGAGVAGGITGSMSLASGKS [HTLV FP, gp21 fusion peptide of HTLV-1, MT-2 isolate]
- GATA3 mRNA expression [1]: elevated Gata3 expression
- IFNG mRNA level [1]: reduced the mRNA levels
- IL4 mRNA level [1]: elevated the mRNA levels
- IL10 mRNA level [1]: elevated the mRNA levels
- LTA mRNA level [1]: reduced the mRNA levels
- STAT4 mRNA level [1]: reduced the mRNA levels
- TBX21 (T-bet) mRNA expression [1]: reduced TBX21 (T-bet) expression
- IFN-γ secretion of spleenocytes stimulated with MOG35-55 [2, 3]: significantly lower IFN-γ secretion
- IL4 secretion of spleenocytes stimulated with MOG35-55 [2, 3]: significantly higher IL4 secretion
- T-cell proliferative response of spleenocytes stimulated with MOG35-55 ([2]; spleens harvested at 26 DPI, H3-thymidine incorporation, CPM, n = 7): significantly lower in HTLV FP treated spleenocytes compared to HTLV Scr treated spleenocytes
